ChEMBL document CHEMBL1201862, “PubChem BioAssay data set” (2004)
Active and inactive are the calls of the source.

How the values were obtained:
[1] = molecular target: Dual specificity protein phosphatase 3 (Homo sapiens, UniProt P51452); assay: inhibition constants for human DUSP3 – biochemical, colorimetric, SAR follow-up (AID 2004)
[2] = molecular target: Melanin-concentrating hormone receptor 1 (Homo sapiens, UniProt Q99705); assay: Fluorescence-based counterscreen for antagonists of the G-protein coupled receptor 7 (GPR7): cell-based high throughput dose response assay to identify antagonists of the melanin-concentrating hormone receptor 1 (MCHR1).; format: functional
[3] = Luminescence Cell-Based Dose Retest to Confirm Inhibitors of Cancer Stem Cells. [Related pubchem assays (depositor defined):AID2717, AID2721]; format: functional; settings: Homo sapiens
[4] = molecular target: Neurotensin receptor type 1 (Homo sapiens, UniProt P30989); format: functional;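 note: Image-based confirmatory dose-response assay measuring agonist activity at NTR1; NTR1-expressing U2OS osteosarcoma cells imaged for beta-arrestin GFP spot formation; agonist potency where compounds increase beta-arrestin recruitment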
[5] = antiviral protection against BTV-induced cell death – arbovirus, BSR cells, confirmation (AID 1250); format: functional;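 note: protection from viral cytopathic effect measured as cell viability by ATP luminescence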
[6] = NIH-3T3 fibroblast cytotoxicity, dose response, cytotoxicity control, cell-based, fluorescence, Alamar Blue, secondary assay (AID 2327); format: functional;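 note: NIH-3T3 mouse fibroblasts cultured with fluconazole at 8 µg/mL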
[7] = fluconazole-exposed Candida albicans growth modulators – fluorescence, retest, confirmation (AID 2467); format: functional, cell-based
[8] = CCR5-tropic HIV-1 fusion blockers – cell-based, CCR5-tropic Env, dose response (AID 2279); format: functional
Aminopeptidase N = Aminopeptidase N (Plasmodium falciparum FcB1/Columbia, UniProt O96935); assay: malaria alanyl aminopeptidase activity blockers – biochemical, fluorogenic H-Leu-NHMec substrate, 1536-well (AID 1445); parameters: species or system Plasmodium falciparum 3D7, 3D7
Fatty acid synthase [9] = molecular target: T1, Fatty acid synthase (Homo sapiens, UniProt P49327); assay: inhibition of human FAS-TE enzyme activity – biochemical, endpoint fluorescence intensity, uHTS hits, dose response (AID 624327); format: functional;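 note: fluorescence from hydrolysis of an O-methyl fluorescein acyl ester substrate by the enzyme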
Fatty acid synthase [10] = molecular target: T1, Fatty acid synthase; assay: inhibition of human FAS-TE enzyme activity – biochemical, kinetic fluorescence intensity, dose response (AID 624326); format: functional;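 note: rate of fluorescence rise from hydrolysis of a fluorogenic O-methyl fluorescein ester substrate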
[11] = molecular target: Cyclin-dependent kinase 5/CDK5 activator 1 (Homo sapiens, UniProt Q00535); assay: blockade of human CDK5 activity – biochemical, cherry-picked samples, set 2, dose response (AID 504545)
[12] = molecular target: T2, Zinc finger protein mex-5 (Caenorhabditis elegans, UniProt Q9XUB2); assay: potency of MEX-5 RNA-binding blockers – biochemical, C. elegans, fluorescence polarization, dose response (AID 1960)
T2 sequence (Q9XUB2 whole entry): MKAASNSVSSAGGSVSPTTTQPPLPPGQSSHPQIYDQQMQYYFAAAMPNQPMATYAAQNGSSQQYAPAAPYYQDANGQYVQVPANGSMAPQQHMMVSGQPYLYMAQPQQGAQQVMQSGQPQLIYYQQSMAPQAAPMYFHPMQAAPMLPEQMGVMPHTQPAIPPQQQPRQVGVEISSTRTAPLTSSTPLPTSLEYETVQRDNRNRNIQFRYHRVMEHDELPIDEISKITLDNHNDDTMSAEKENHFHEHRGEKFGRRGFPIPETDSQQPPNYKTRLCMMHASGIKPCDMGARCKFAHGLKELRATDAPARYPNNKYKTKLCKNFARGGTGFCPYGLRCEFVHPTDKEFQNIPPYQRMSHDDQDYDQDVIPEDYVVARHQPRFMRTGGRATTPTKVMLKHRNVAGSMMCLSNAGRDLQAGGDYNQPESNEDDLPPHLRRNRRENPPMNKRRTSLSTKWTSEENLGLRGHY

[13] = molecular target: DNA (cytosine-5)-methyltransferase 1 (Homo sapiens, UniProt P26358); assay: inhibition of DNA methylation by DNMT1 – biochemical, fluorescent molecular beacon, confirmation (AID 602386); format: functional
cells [14] = format: functional, cell-based
cells [15] = format: functional, cell-based; remark: listed apart in the source
HeLa = assay: viability loss in HeLa cells – cell-based, 24 h, cherry-picked samples, cytotoxicity control, dose response (AID 504726); format: functional; settings: Homo sapiens;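 note: potency for cytotoxicity as loss of luminescence signal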
[16] = molecular target: Bifunctional protein GlmU (Mycobacterium tuberculosis, UniProt P9WMN3); assay: Inhibitors of Mycobacterial Glucosamine-1-phosphate acetyl transferase (GlmU). Secondary screen.; parameters: species or system Mycobacterium tuberculosis H37Rv
Ephrin type-A receptor 4 = Ephrin type-A receptor 4 (Mus musculus, UniProt Q03137); assay: EphA4 ligand-binding antagonists – biochemical, colorimetric, mouse EphA4, primary screen (AID 689); format: functional
[17] = molecular target: T3, Heat shock 70 kDa protein 1A (Homo sapiens, UniProt P0DMV8); assay: small molecules displacing fluorescent ligand from Hsp70 – biochemical, fluorescence polarization, primary screen (AID 583)
[18] = molecular target: T3, Heat shock 70 kDa protein 1A; assay: small-molecule inhibition of Hsp70 – biochemical, TR-FRET (AID 786)
[19] = molecular target: T4, Dual specificity protein phosphatase 6 (Rattus norvegicus, UniProt Q64346); assay: inhibition of rat DUSP6 enzyme activity – biochemical, in vitro, primary screen (AID 425)
T4 sequence (Q64346 whole entry): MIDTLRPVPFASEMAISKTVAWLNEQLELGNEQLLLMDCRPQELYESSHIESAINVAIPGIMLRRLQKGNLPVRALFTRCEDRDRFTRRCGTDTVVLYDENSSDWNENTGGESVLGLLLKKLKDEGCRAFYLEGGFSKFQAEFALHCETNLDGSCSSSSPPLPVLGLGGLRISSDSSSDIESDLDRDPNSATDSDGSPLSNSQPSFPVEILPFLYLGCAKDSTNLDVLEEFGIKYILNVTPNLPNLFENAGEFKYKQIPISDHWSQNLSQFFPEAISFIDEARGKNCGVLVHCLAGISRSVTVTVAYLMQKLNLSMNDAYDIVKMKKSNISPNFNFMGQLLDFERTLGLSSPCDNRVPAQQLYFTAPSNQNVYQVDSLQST

[20] = molecular target: Mothers against decapentaplegic homolog 3 (Homo sapiens, UniProt P84022); assay: inhibitors of SMAD-driven TGF-beta signaling – dose response (AID 715); format: functional
[21] = molecular target: T5, RNA-binding protein pos-1 (Caenorhabditis elegans, UniProt G5EF15); assay: disruptors of C. elegans POS-1 RNA interaction – biochemical, fluorescence polarization, dose response (AID 1964);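 note: purified POS-1 fused to maltose binding protein made in E. coli; potency of compounds blocking POS-1 binding to fluorescent RNA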
T5 sequence (G5EF15 whole entry): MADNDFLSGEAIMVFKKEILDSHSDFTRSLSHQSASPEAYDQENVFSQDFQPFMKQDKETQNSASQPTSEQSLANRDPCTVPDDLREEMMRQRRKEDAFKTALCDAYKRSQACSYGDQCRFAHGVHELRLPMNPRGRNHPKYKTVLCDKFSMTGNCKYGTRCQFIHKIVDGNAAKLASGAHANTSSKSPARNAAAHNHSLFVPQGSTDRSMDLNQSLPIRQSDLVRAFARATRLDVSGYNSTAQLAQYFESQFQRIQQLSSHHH

[22] = molecular target: T6, Trace amine-associated receptor 1 (Homo sapiens, UniProt Q96RJ0); assay: Counterscreen for agonists of the human trace amine associated receptor 1 (hTAAR1): Fluorescence-based cell-based high throughput dose response assay to identify hTAAR1 agonist that also desensitize TAAR1 receptor response.; format: functional
T6 sequence (Q96RJ0 whole entry): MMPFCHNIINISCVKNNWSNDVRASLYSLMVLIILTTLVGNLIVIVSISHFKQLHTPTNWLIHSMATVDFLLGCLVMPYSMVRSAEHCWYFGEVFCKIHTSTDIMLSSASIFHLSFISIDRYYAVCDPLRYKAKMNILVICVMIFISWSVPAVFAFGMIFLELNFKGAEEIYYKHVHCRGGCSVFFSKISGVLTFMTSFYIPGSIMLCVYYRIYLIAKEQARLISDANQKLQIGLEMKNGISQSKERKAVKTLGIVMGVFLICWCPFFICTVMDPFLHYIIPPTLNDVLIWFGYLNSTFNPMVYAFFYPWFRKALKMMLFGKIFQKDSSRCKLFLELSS

ORF 73 = ORF 73 (Human herpesvirus 8, UniProt O40947); assay: KSHV LANA DNA-binding disruption – biochemical, fluorescence polarization, cherry-picked samples, dose response (AID 504725); parameters: species or system Human gammaherpesvirus 8;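 note: fluorescence polarization of a labeled DNA duplex reporting LANA DNA binding; potency is for inhibitors that block LANA binding to the DNA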
Estrogen receptor beta [23] = molecular target: T7, Estrogen receptor beta (Homo sapiens, UniProt Q92731); assay: blockers of SRC-3 recruitment to ERβ – biochemical, ELISA, streptavidin-HRP readout, orthogonal assay, confirmation (AID 1060)
T7 sequence (Q92731 whole entry): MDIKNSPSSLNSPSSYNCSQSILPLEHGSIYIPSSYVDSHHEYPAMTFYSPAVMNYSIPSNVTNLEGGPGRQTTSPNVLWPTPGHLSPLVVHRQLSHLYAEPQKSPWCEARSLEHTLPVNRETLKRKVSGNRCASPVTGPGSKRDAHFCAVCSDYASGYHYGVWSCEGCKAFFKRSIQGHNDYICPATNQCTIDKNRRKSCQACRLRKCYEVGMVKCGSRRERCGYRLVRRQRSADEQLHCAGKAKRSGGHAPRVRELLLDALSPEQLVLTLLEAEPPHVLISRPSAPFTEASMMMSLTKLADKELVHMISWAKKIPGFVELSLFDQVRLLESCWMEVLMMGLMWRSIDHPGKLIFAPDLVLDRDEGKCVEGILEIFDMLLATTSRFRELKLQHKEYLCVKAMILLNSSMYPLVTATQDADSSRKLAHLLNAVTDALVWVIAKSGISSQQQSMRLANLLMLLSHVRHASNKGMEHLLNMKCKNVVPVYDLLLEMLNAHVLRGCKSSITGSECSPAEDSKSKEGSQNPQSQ

Cytochrome P450 2C9 = Cytochrome P450 2C9 (Homo sapiens, UniProt P11712)
[24] = molecular target: Protein-tyrosine kinase 2-beta (Homo sapiens, UniProt Q14289);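 note: potency of inhibitors of PYK2 kinase phosphorylation of poly-GT substrate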
[25] = molecular target: T6, Trace amine-associated receptor 1; assay: Fluorescence-based cell-based high throughput dose response assay to identify agonists of the human trace amine associated receptor 1 (TAAR1).; format: functional
Estrogen receptor beta [26] = molecular target: T7, Estrogen receptor beta
Bcl-2-like protein 10 = Bcl-2-like protein 10 (Homo sapiens, UniProt Q9HD36); assay: Bcl-B/TR3 peptide binding disruption – biochemical, fluorescence polarization, FITC-TR3 peptide, selectivity assay for Bfl-1 inhibitor project, primary screen (AID 748);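 note: fluorescence polarization from a fluorescein-labelled TR3 peptide binding purified Bcl-B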
[27] = molecular target: T8, Eukaryotic translation initiation factor 2-alpha kinase 3 (Homo sapiens, UniProt Q9NZJ5); assay: Dose response cell-based high-throughput screening assay to measure PERK inhibition. [Related pubchem assays: 1416 ]; format: functional
T8 sequence (Q9NZJ5 whole entry): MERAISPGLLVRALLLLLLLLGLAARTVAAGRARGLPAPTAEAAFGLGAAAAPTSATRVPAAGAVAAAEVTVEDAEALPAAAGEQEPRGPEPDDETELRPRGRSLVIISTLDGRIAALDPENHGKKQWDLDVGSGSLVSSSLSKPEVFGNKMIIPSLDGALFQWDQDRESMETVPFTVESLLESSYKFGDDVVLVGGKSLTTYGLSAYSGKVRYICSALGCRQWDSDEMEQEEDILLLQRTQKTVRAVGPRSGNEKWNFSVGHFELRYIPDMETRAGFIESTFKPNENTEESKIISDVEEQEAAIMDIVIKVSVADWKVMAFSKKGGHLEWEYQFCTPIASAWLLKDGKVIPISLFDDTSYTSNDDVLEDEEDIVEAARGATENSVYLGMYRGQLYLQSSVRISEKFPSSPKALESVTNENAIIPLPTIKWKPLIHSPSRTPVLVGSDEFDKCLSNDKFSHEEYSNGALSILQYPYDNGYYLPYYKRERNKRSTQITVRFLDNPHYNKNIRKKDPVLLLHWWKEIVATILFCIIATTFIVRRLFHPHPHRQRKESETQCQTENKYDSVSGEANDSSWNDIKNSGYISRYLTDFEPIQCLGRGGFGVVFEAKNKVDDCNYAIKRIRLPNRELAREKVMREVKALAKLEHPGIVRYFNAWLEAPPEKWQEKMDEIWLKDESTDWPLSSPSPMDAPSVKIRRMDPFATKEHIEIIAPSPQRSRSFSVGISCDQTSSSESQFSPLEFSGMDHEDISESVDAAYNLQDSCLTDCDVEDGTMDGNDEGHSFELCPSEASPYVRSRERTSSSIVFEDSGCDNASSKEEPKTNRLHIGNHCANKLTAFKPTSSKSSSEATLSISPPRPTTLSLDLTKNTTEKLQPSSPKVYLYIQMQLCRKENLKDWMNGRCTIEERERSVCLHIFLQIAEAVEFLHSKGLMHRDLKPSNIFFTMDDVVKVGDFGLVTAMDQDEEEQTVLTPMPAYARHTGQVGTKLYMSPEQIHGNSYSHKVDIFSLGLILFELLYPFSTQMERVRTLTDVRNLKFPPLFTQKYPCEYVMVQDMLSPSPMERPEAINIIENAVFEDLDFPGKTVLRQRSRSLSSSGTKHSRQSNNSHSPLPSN

[28] = molecular target: T8, Eukaryotic translation initiation factor 2-alpha kinase 3; assay: Counterscreen assay for PERK inhibitors: Dose response cell-based high throughput screening assay to measure inhibition of PERK at 6 hours. [Related pubchem assays: 1522, 1416 ]; format: functional
Leucine aminopeptidase = molecular target: T9, Leucine aminopeptidase (Plasmodium falciparum 3D7, UniProt Q8IL11); assay: P. falciparum M17LAP inhibitors, primary screen, biochemical, fluorogenic H-Leu-NHMec substrate, 1536-well (AID 1619); format: functional
T9 sequence (Q8IL11 whole entry): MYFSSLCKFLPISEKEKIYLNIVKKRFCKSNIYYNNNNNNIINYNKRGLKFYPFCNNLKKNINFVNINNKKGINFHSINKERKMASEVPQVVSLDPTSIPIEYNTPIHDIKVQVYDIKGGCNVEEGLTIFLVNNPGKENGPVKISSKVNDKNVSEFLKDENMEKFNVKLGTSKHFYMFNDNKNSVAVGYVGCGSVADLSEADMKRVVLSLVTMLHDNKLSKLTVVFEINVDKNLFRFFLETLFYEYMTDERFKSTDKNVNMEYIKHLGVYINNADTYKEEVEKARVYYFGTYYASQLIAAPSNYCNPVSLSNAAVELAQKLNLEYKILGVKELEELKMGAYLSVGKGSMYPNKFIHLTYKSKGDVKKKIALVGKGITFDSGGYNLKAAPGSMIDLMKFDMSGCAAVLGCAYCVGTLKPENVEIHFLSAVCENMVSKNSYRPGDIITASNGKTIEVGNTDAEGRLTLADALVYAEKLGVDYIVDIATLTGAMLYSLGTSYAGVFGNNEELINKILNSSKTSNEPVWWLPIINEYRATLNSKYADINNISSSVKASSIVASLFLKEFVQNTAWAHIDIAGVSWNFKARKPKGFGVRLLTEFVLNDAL

[29] = Cytotoxicity screening for potential Inhibitors of Bacterial Capsule Biogenesis. [Related pubchem assays (depositor defined):AID488970]; format: functional
[30] = molecular target: T10, Voltage-gated N-type calcium channel alpha-1B subunit/Amyloid beta A4 precursor protein-binding family A member 1 (Homo sapiens, UniProt Q00975+Q02410); assay: disruptors of Mint-PDZ/N-type channel peptide interaction – biochemical, HTRF, SAR follow-up (AID 2489); format: functional
T10 sequence (Q00975 whole entry): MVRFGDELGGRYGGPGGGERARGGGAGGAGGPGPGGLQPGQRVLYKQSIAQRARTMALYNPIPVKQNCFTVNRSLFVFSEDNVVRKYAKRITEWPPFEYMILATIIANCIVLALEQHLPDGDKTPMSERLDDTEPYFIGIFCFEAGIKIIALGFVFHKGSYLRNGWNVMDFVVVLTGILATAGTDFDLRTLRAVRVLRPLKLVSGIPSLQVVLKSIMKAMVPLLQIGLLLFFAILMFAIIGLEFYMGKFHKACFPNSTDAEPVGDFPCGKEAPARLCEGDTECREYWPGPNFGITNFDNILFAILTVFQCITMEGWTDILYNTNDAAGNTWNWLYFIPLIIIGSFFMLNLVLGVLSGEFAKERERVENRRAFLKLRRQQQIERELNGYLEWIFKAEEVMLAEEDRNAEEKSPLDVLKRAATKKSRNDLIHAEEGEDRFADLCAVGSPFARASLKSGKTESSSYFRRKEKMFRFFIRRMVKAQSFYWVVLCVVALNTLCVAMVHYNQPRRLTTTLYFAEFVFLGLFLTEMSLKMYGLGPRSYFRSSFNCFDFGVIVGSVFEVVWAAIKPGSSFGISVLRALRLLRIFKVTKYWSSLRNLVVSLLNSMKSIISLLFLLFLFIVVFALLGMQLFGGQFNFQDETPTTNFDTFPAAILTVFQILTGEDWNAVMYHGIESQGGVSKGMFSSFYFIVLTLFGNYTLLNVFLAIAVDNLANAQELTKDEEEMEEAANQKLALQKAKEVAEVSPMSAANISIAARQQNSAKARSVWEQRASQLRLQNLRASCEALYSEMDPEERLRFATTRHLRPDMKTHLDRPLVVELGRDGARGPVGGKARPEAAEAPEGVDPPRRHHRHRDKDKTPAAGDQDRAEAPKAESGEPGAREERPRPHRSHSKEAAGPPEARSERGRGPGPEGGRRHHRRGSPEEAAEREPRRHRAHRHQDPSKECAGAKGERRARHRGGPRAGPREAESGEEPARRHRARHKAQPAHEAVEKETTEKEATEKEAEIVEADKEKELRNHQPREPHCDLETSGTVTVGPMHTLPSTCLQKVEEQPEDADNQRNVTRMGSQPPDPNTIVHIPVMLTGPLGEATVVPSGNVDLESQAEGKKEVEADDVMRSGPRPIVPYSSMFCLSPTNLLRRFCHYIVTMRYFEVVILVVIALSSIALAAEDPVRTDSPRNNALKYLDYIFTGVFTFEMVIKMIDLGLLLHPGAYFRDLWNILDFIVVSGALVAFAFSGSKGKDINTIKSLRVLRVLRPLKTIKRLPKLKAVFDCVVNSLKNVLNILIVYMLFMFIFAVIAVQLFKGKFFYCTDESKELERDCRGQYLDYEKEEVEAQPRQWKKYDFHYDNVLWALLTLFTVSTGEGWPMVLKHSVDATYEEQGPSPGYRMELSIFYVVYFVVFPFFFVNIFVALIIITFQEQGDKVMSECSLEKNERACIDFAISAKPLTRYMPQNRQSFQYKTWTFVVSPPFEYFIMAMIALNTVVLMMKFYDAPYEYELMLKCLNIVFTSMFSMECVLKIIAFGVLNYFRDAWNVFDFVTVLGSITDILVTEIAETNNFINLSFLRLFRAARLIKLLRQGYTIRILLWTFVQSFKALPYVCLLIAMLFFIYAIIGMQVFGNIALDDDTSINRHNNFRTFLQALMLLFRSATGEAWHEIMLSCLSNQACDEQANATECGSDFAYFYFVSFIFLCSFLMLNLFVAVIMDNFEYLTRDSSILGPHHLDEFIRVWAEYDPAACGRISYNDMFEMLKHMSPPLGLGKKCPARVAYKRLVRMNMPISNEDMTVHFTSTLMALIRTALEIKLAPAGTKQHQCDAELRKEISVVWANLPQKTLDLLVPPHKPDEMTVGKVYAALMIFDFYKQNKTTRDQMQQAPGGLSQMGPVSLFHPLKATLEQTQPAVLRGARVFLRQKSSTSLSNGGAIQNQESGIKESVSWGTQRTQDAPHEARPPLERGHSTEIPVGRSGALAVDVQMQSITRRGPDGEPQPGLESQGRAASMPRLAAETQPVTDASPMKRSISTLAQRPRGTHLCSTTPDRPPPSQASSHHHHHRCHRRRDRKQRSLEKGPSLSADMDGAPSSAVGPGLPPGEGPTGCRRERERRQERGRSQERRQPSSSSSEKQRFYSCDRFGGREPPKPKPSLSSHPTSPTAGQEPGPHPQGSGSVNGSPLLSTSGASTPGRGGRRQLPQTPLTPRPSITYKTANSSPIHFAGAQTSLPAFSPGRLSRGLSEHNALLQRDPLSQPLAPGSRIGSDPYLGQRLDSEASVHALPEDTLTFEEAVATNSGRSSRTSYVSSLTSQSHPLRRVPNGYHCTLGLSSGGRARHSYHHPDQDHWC
T10 sequence (Q02410 whole entry): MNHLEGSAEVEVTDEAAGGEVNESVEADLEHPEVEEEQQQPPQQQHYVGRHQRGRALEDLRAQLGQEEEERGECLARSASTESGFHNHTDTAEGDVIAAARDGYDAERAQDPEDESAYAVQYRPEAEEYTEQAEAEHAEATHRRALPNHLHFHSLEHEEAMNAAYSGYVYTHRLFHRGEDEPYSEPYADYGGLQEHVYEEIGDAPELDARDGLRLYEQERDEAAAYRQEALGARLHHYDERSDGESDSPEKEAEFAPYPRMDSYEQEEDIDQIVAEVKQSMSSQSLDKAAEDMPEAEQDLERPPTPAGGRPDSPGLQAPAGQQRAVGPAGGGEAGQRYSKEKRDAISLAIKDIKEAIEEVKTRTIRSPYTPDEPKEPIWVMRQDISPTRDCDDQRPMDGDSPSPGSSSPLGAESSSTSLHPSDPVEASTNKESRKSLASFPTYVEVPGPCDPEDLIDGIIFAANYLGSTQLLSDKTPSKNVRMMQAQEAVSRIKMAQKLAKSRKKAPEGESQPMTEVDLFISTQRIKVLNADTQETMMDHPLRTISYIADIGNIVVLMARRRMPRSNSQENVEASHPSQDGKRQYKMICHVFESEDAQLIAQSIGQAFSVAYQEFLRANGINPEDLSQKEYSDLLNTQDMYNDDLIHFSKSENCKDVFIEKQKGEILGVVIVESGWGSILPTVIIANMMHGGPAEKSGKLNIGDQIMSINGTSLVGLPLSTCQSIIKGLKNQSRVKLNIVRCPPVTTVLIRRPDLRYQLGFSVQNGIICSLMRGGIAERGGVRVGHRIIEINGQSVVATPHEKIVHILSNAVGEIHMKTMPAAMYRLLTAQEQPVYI

[31] = molecular target: T10, Voltage-gated N-type calcium channel alpha-1B subunit/Amyloid beta A4 precursor protein-binding family A member 1; assay: disruptors of Mint-PDZ/N-type channel peptide interaction – biochemical, HTRF, set 2, SAR follow-up (AID 434980); format: functional

Sequence of Dual specificity protein phosphatase 3 (P51452 whole entry): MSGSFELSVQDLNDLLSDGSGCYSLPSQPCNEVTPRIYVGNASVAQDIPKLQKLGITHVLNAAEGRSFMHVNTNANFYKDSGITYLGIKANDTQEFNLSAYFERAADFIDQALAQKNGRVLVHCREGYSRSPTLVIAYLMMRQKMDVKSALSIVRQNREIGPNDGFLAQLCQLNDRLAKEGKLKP

## Cc1ccc(-c2ccccc2)n1-c1ccc(O)c(C(=O)O)c1
[1]
  Ki: 80.3 µM (inactive)

## N=C(N)NS(=O)(=O)c1ccc(NC(=S)NC(=O)Cc2ccc(Cl)cc2)cc1
[2]
  IC50: 21.8 µM (not active)

## CC(C)CN1C(=O)/C(=C/c2c[nH]nc2-c2ccccc2)SC1=S
[3]
  AC50: 2.59 µM (active)
[4]
  EC50: 15 µM (active)

## COc1cc(/C=C(\C#N)c2nc3ccccc3s2)cc([N+](=O)[O-])c1O
[5]
  IC50: 33.7 µM (active)
[6]
  EC50: > 150 µM (inactive)
[7]
  EC50: > 38 µM (not active)
[8]
  IC50: > 50 µM (active)
Aminopeptidase N
  IC50: 11 µM (active)
Fatty acid synthase [9]
  IC50: 12.4 µM (active)
Fatty acid synthase [10]
  IC50: 10 µM (active)

## CCC(C)(C)C1CCc2n[nH]c(C(=O)NCCN3CCOCC3)c2C1 (stereo not drawn)
[11]
  AC50: 20.9 µM (active)

## CC1(C)CCCN(C(=O)c2coc(=O)c(Br)c2)C1
[12]
  EC50: 68.3 µM (active)
[13]
  IC50: 2.92 µM (active)
Cells [14]
  IC50: > 29.9 µM (inactive)
Cells [15]
  EC50: > 29.9 µM (inactive)
HeLa
  AC50: 96.3 µM (active)
[16]
  IC50: 21.2 µM (active)
Ephrin type-A receptor 4
  IC50: 8.98 µM (active)
[17]
  IC50: 13.1 µM (active)
[18]
  IC50: 8.32 µM (active)
[19]
  IC50: > 10 µM (not active)
[20]
  IC50: 14 µM (active)
[21]
  EC50: > 300 µM (not active)
[22]
  IC50: 2.41 µM (active)
ORF 73
  AC50: 71.2 µM (active)
Estrogen receptor beta [23]
  IC50: 93.2 µM (not active)
Cytochrome P450 2C9
  AC50: 28.2 µM (inconclusive)
[24]
  IC50: 5.23 µM (active)
[25]
  EC50: 0.827 µM (active)
Estrogen receptor beta [26]
  IC50: < 1.56 µM (active)
Bcl-2-like protein 10
  IC50: 6.54 µM (active)

## CC(C)C(=O)NNc1ccc(C(F)(F)F)cn1
[27]
  EC50: > 55.7 µM (not active)
[28]
  EC50: > 55.7 µM (not active)

## CC1(C(=O)O)CCC(C(=O)Nc2ccc3ccccc3c2)C1(C)C (stereo not drawn)
Leucine aminopeptidase
  IC50: 12.5 µM (active)
[29]
  CC50: > 100 µM (active)

## O=C(NCCc1ccncc1)c1cc(-c2ccco2)nc2ccccc12
[30]
  IC50: > 56.8 µM (inactive)
[31]
  IC50: > 56.8 µM (inactive)
